According to patent US20160333019A1, “SYNTHESIS AND FORMULATIONS OF PORPHYRIN COMPOUNDS” (Aeolus Sciences, Inc., priority 2013, published 2016):

Key:
Format in all cases: physicochemical
[1] = Study 2: 75 mg/mL Formula (VI) in WFI at pH 7.0, 14 days at 60° C.
Procedure: The samples were filled in glass vials and capped with an air headspace. All samples were tested and evaluated for physicochemical stability under the storage conditions at 2-8 and 60° C. after 0, 3, 7 and 14 days.
About 10 g of WFI was placed in the container including a stir bar.
The pH was measured at approximately hourly intervals and at about 16 hours and 24 hours. At the end of the 16-24 hour hold/mix, the pH of the solution was adjusted to pH 7.0 with either HCl or NaOH and mixed for approximately 15 minutes. The solution was filtered through a PVDF, 0.22 μm filter into a clean container and its pH measured.
The pH was measured at 30 minutes then hourly thereafter for the 16-24 hour time period. Once the solution pH and osmolality stabilized, the air sparging was stopped. The solution was adjusted to pH 7.0 with either HCl or NaOH and mixed for about 15 minutes. The solution was filtered through a PVDF, 0.22 μm filter into clean container and the pH measured.
Both samples were then stored at 60° C. and samples taken at 0, 3, 7 and 14 days from both containers and to measure pH. […]

[2] = Study 3: various strengths of Formula (VI) in WFI at pH 7.0, with and without ascorbic acid
Procedure: Ascorbic acid was also included in this study. […] The samples were tested and evaluated for physicochemical stability under 2-8 and 60° C. storage conditions after 0, 3, 7 and 14 days.
(§1) About 10 g of WFI was placed in the container including a stir bar. […] The pH was measured and the solution was mixed at room temperature for 16-24 hours. At the end of the 16-24 hour hold/mix, the pH of solution was adjusted to pH 7.0 with either HCl or NaOH and mixed for about 15 minutes. The solution was filtered through a PVDF, 0.22 μm filter by discarding about 1 mL prior to placing about 9-10 mL into each of two separate clean containers. The pH of the samples was then measured.
as §1, with “bar. […] About 0.1026 g of Ascorbic Acid was added to the container while mixing.” for “bar.”, “discarding” for “discarding about”
as §1, with “bar. […] About 0.103 g of Ascorbic Acid was added to the container while mixing.” for “bar.”
Following preparation of the solutions, one container of each of solutions 1-6 was stored at 2-8° C. The remaining containers for each of solutions 1-6 were stored at 60° C. From each container, a sample was taken at 0, 3, 7 and 14 days and the pH of the solution was measured.

[3] = Study 5: 75 mg/mL Formula (VI) in WFI at various pH under ICH storage temperatures; conditions: for pH change: 75 mg/mL at pH 6
Procedure: It was noticeable from Study 2 that drug stability was dependent on the pH. The lower the pH, the greater the chemical stability. […] An accelerated 60° C. storage temperature was also accessed in order to compare and generate a pH-stability profile of drug in water.
as §1, with “4.0” for “7.0”, “4-5” for “9-10”, “four” for “two”, “containers (A, B, C, D).” for “containers.”, “measured. Solution A was stored at 2-8° C., solution B at 25° C., solution C at 30° C. and solution D at 40° C. A sample was removed from each container after 3, 7 and 14 days the pH measured.” for “measured.”
as §1, with “5.0” for “7.0”, “4-5” for “9-10”, “four” for “two”, “containers (A, B, C, D).” for “containers.”, “measured. Solution A was stored at 2-8° C., solution B at 25° C., solution C at 30° C. and solution D at 40° C. A sample was removed from each container after 3, 7 and 14 days the pH measured.” for “measured.”
as §1, with “6.0” for “7.0”, “4-5” for “9-10”, “four” for “two”, “containers (A, B, C, D).” for “containers.”, “measured. Solution A was stored at 2-8° C., solution B at 25° C., solution C at 30° C. and solution D at 40° C. A sample was removed from each container after 3, 7 and 14 days the pH measured.” for “measured.”

[4] = 75 mg/mL, 60° C. for 14 days, within pH profile range 4.1-6.5

## [5,10,15,20-tetrakis(1,3-diethylimidazolium-2-yl)porphyrinato]manganese(III) chloride hydrate complex [Formula (VI)]
[1]; 75 mg/mL in WFI, 2-8 and 60° C., 0, 3, 7 and 14 days
  dependence of drug stability on pH: The lower the pH, the greater the drug stability
[1]; 75 mg/mL in water at pH 7.0, 60° C., after 14 days
  pH decrease: 1-2 pH units
[1]; 75 mg/mL in water at pH 7.0, refrigerated condition
  pH stability: relatively stable
[1]; 75 mg/mL in water pH 7, 60° C.
  chemical stability, air sparged versus non-sparged sample: better stability
[1]; 75 mg/mL in water pH 7, all samples stored at 60° C., after 14 days
  degradation lower than that from the control sample: 3-6%
[2]; 100 mg/mL refrigerated sample without ascorbic acid, after 3 day storage
  pH increase: ~1 pH unit
[2]; 100 mg/mL sample without ascorbic acid, 60° C., after 14 days
  pH decrease compared to the control sample: ~2 pH units
[2]; 65, 75, 100 mg/mL in water pH 7 containing ascorbic acid, 60° C., after 14 days
  degradation: 3-5%
[2]; 65, 75, 100 mg/mL in water pH 7 without ascorbic acid, 60° C., after 14 days
  degradation: 3-5%
[2]; 65 and 75 mg/mL samples without ascorbic acid, 60° C., after 14 days
  pH decrease: ~2 pH units
[2]; 65 and 75 mg/mL samples without ascorbic acid, refrigerated condition
  pH stability: relatively stable
[2]; all refrigerated samples containing ascorbic acid, after 14 days
  pH increase from initial pH: ~1.5 pH units
[2]; samples containing ascorbic acid, 60° C., after 3 days
  pH decrease from initial pH: ~2 pH units
[2]; samples containing ascorbic acid, 60° C., after 14 days
  pH rise back: 1-1.5 pH units
[3]; 75 mg/mL at pH 4 and 5, all storage conditions, after 14 days
  pH variation: ≤ 0.1 pH unit
[3]; 75 mg/mL at pH 5, 60° C., after 14 days
  pH decrease: ~0.2 pH units
[3]; 2-8° C., after 14 days
  pH change: 0.7 pH units
[3]; 25° C., after 14 days
  pH change: 0.5 pH units
[3]; 40° C., after 14 days
  pH change: −0.1 pH units
[3]; 60° C., after 14 days
  pH change: −0.9 pH units
[3]; 75 mg/mL in water, samples at pH between 4.1 and 6.8, after 14 days
  change of purity assays: No significant changes
[3]; 75 mg/mL, 60° C. for 14 days, increase of pH between 4.1 and 6.5
  decrease in drug purity assay: ~5%
[3]; [4]
  increase of degradant at RRT 1.56-1.62: ~8 folds
  level of degradant at RRT 1.56-1.62: 0.4-3.2%
[3]; 60° C. samples, between pH 4.1 and 5.2
  decrease of purity assay: ~3%
[3]; pH 4 sample, 60° C. storage
  osmolality: 292 mOsm/kg
[3]; pH 4 samples, 2-8, 25 and 40° C., after 14 days
  osmolality: 277-280 mOsm/kg
[3]; pH 5 sample, 60° C. storage
  osmolality: 302 mOsm/kg
[3]; pH 5 samples, 2-8, 25 and 40° C., after 14 days
  osmolality: 273-275 mOsm/kg
[3]; pH 6 sample, 60° C. storage
  osmolality: 283 mOsm/kg
[3]; pH 6 samples, 2-8, 25 and 40° C., after 14 days
  osmolality: 269-272 mOsm/kg
